Source: patent US11395847B2, “Acylated GLP-1/GLP-2 dual agonists” (Zealand Pharma A/S, priority 2016, dated 2022)
Read-outs that look alike come from different tables or passages of the source. Where a SMILES comes first, the peptide text is derived from it.

Tests used:
[1] = Solubility assessment (turbidity absorbance at 325 nm); assay type: physicochemical
Summary of the method: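 Peptide stock at 2 mg/ml in water at pH 2.5 diluted 1:1 into 100 mM acetate (pH 4.0, 5.0), histidine (pH 6.0, 7.0) or phosphate (pH 6.0, 7.0, 7.5) buffer. Absorbance at 280 and 325 nm read at ambient temperature (typically 25 °C), single samples (n=1).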

[2] = Chemical stability (RP-HPLC normalized purity after incubation at 40° C.); assay type: physicochemical; conditions: 14-day incubation, 0.2 mg/ml, normalized purity (area-%); for pH 6 normalized stability: pH 6, 40° C.; for pH 7 normalized stability: pH 7, 40° C.
Summary of the method: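 Peptide at 0.2 mg/ml final in water adjusted to pH 6, 7, 7.5 or 9, incubated at 40° C for 14 days. Purity measured as main-peak area-% by C18 RP-HPLC (acetonitrile/TFA/water gradient, UV 220 nm) and normalized to T=0 set at 100 for each pH.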

[3] = test system: Normal chow-fed C57BL/6J male mice; assay: Effect on fasting glucose and intestinal weight in normal mice; assay type: in vivo; conditions: for Small intestinal wet weight: 100 nmol/kg s.c. once daily for 4 days, sacrificed 24 hours after final dosing; for Fasting blood glucose: 100 nmol/kg s.c., day 0 after a single injection, fasted mice
Method: Normal chow-fed C57BL/6J male mice were used. The mice were kept in standard housing conditions, light-, temperature-, and humidity-controlled room (12:12 h light-dark cycle, with lights on at 06.00-18.00 h; 20-22° C.; 50-80% relative humidity). Each dosing group consisted of 6 animals. Mice were dosed once daily with 100 nmol/kg with the test compounds or vehicle for 4 days via subcutaneous administration.
On day 0 mice were fasted and blood glucose levels measured after a single s.c. injection with peptides. Animals were sacrificed 24 hours after final dosing on day 3, and small intestinal wet weights were measured.

Compound	solubility ([1]; 100 mM acetate buffer pH 4.0, ambient temperature, read-out: Solubility Acetate buffer pH 4) [µg/mL]	solubility ([1]; 100 mM acetate buffer pH 5.0, ambient temperature, read-out: Solubility Acetate buffer pH 5) [µg/mL]	solubility ([1]; 100 mM histidine buffer pH 6.0, ambient temperature, read-out: Solubility Histidine buffer pH 6) [µg/mL]	solubility ([1]; 100 mM histidine buffer pH 7.0, ambient temperature, read-out: Solubility Histidine buffer pH 7) [µg/mL]	solubility ([1]; 100 mM phosphate buffer pH 6.0, ambient temperature, read-out: Solubility Phosphate buffer pH 6) [µg/mL]	solubility ([1]; 100 mM phosphate buffer pH 7.0, ambient temperature, read-out: Solubility Phosphate buffer pH 7) [µg/mL]	solubility ([1]; 100 mM phosphate buffer pH 7.5, ambient temperature, read-out: Solubility Phosphate buffer pH 7.5) [µg/mL]	pH 6 normalized stability [2]	pH 7 normalized stability [2]	Small intestinal wet weight [3] [g]	Fasting blood glucose [3] [mM]
CC[C@H](C)[C@H](NC(=O)[C@H](Cc1ccccc1)NC(=O)[C@H](CC(=O)O)NC(=O)[C@H](CCCNC(=N)N)NC(=O)[C@H](C)NC(=O)[C@H](C)NC(=O)[C@H](CCC(N)=O)NC(=O)[C@H](CCCCNC(=O)CC[C@H](NC(=O)CCCCCCCCCCCCCCCCC(=O)O)C(=O)O)NC(=O)[C@H](CC(=O)O)NC(=O)[C@H](CC(C)C)NC(=O)[C@@H](NC(=O)[C@@H](NC(=O)[C@H](C)NC(=O)[C@H](CC(C)C)NC(=O)[C@H](CCC(=O)O)NC(=O)[C@H](CO)NC(=O)[C@@H](NC(=O)[C@H](Cc1ccccc1)NC(=O)[C@H](CO)NC(=O)CNC(=O)[C@H](CCC(=O)O)NC(=O)C(C)(C)NC(=O)[C@@H](N)Cc1c[nH]cn1)[C@@H](C)O)[C@@H](C)O)[C@@H](C)CC)C(=O)N[C@@H](C)C(=O)N[C@@H](Cc1c[nH]c2ccccc12)C(=O)N[C@@H](CC(C)C)C(=O)N[C@H](C(=O)N[C@@H](CCC(N)=O)C(=O)N[C@@H](Cc1c[nH]cn1)C(=O)N[C@@H](CCCCN)C(=O)N[C@H](C(=O)N[C@H](C(=O)N[C@@H](CC(=O)O)C(=O)O)[C@@H](C)O)[C@@H](C)CC)[C@@H](C)CC [Compound 18] (HELM PEPTIDE1{H.[Aib].E.G.S.F.T.S.E.L.A.T.I.L.D.K.Q.A.A.R.D.F.I.A.W.L.I.Q.H.K.I.T.D}|PEPTIDE2{[O=C(O)CCCCCCCCCCCCCCCCC(=O)[*:2]].[gGlu]}$PEPTIDE1,PEPTIDE2,16:R3-2:R2$$$V2.0)	< 1000	< 1000	≥ 1000	≥ 1000	≥ 1000	≥ 1000	≥ 1000	A (>90% normalised stability)	A (>90% normalised stability)	1.37	5.26
CC[C@H](C)[C@H](NC(=O)[C@H](Cc1ccccc1)NC(=O)[C@H](CC(=O)O)NC(=O)[C@H](CCCNC(=N)N)NC(=O)[C@H](C)NC(=O)[C@H](C)NC(=O)[C@H](CCCCN)NC(=O)[C@H](CCCCNC(=O)CC[C@H](NC(=O)CCCCCCCCCCCCCCCCC(=O)O)C(=O)O)NC(=O)[C@H](CC(=O)O)NC(=O)[C@H](CC(C)C)NC(=O)[C@@H](NC(=O)[C@@H](NC(=O)[C@H](C)NC(=O)[C@H](CC(C)C)NC(=O)[C@H](CCC(=O)O)NC(=O)[C@H](CO)NC(=O)[C@@H](NC(=O)[C@H](Cc1ccccc1)NC(=O)[C@H](CO)NC(=O)CNC(=O)[C@H](CCC(=O)O)NC(=O)C(C)(C)NC(=O)[C@@H](N)Cc1c[nH]cn1)[C@@H](C)O)[C@@H](C)O)[C@@H](C)CC)C(=O)N[C@@H](C)C(=O)N[C@@H](Cc1c[nH]c2ccccc12)C(=O)N[C@@H](CC(C)C)C(=O)N[C@H](C(=O)N[C@@H](CCC(=O)O)C(=O)N[C@@H](Cc1c[nH]cn1)C(=O)N[C@@H](CCCCN)C(=O)N[C@H](C(=O)N[C@H](C(=O)N[C@@H](CC(=O)O)C(=O)O)[C@@H](C)O)[C@@H](C)CC)[C@@H](C)CC [Compound 5] (HELM PEPTIDE1{H.[Aib].E.G.S.F.T.S.E.L.A.T.I.L.D.K.K.A.A.R.D.F.I.A.W.L.I.E.H.K.I.T.D}|PEPTIDE2{[O=C(O)CCCCCCCCCCCCCCCCC(=O)[*:2]].[gGlu]}$PEPTIDE1,PEPTIDE2,16:R3-2:R2$$$V2.0)								A (>90% normalised stability)	A (>90% normalised stability)	1.35	4.60
CC[C@H](C)[C@H](NC(=O)[C@H](Cc1ccccc1)NC(=O)[C@H](CC(=O)O)NC(=O)[C@H](CCCNC(=N)N)NC(=O)[C@H](C)NC(=O)[C@H](C)NC(=O)[C@H](CCCCNC(=O)CC[C@H](NC(=O)CCCCCCCCCCCCCCCCC(=O)O)C(=O)O)NC(=O)CNC(=O)[C@H](CC(=O)O)NC(=O)[C@H](CC(C)C)NC(=O)[C@@H](NC(=O)[C@@H](NC(=O)[C@H](C)NC(=O)[C@H](CC(C)C)NC(=O)[C@H](CCC(=O)O)NC(=O)[C@H](CO)NC(=O)[C@@H](NC(=O)[C@H](Cc1ccccc1)NC(=O)[C@H](CO)NC(=O)CNC(=O)[C@H](CCC(=O)O)NC(=O)C(C)(C)NC(=O)[C@@H](N)Cc1c[nH]cn1)[C@@H](C)O)[C@@H](C)O)[C@@H](C)CC)C(=O)N[C@@H](C)C(=O)N[C@@H](Cc1c[nH]c2ccccc12)C(=O)N[C@@H](CC(C)C)C(=O)N[C@H](C(=O)N[C@@H](CCC(=O)O)C(=O)N[C@@H](Cc1c[nH]cn1)C(=O)N[C@@H](CCCCN)C(=O)N[C@H](C(=O)N[C@H](C(=O)N[C@@H](CC(=O)O)C(=O)O)[C@@H](C)O)[C@@H](C)CC)[C@@H](C)CC [Compound 8] (HELM PEPTIDE1{H.[Aib].E.G.S.F.T.S.E.L.A.T.I.L.D.G.K.A.A.R.D.F.I.A.W.L.I.E.H.K.I.T.D}|PEPTIDE2{[O=C(O)CCCCCCCCCCCCCCCCC(=O)[*:2]].[gGlu]}$PEPTIDE1,PEPTIDE2,17:R3-2:R2$$$V2.0)										1.27	5.28
CC[C@H](C)[C@H](NC(=O)[C@H](Cc1ccccc1)NC(=O)[C@H](CC(=O)O)NC(=O)[C@H](CCCNC(=N)N)NC(=O)[C@H](C)NC(=O)[C@H](C)NC(=O)[C@H](CCC(N)=O)NC(=O)[C@H](CCCCNC(=O)COCCOCCNC(=O)[C@H](CCCCN)NC(=O)[C@H](CCC(=O)O)NC(=O)[C@H](CCCCN)NC(=O)CC[C@H](NC(=O)CCCCCCCCCCCCCCCCCCC(=O)O)C(=O)O)NC(=O)[C@H](CC(=O)O)NC(=O)[C@H](CC(C)C)NC(=O)[C@@H](NC(=O)[C@@H](NC(=O)[C@H](C)NC(=O)[C@H](CC(C)C)NC(=O)[C@H](CCC(=O)O)NC(=O)[C@H](CO)NC(=O)[C@H](CO)NC(=O)[C@H](Cc1ccccc1)NC(=O)[C@@H](NC(=O)CNC(=O)[C@H](CCC(=O)O)NC(=O)C(C)(C)NC(=O)[C@@H](N)Cc1c[nH]cn1)[C@@H](C)O)[C@@H](C)O)[C@@H](C)CC)C(=O)N[C@@H](C)C(=O)N[C@@H](Cc1c[nH]c2ccccc12)C(=O)N[C@@H](CC(C)C)C(=O)N[C@H](C(=O)N[C@@H](CCC(N)=O)C(=O)N[C@@H](Cc1c[nH]cn1)C(=O)N[C@@H](CCCCN)C(=O)N[C@H](C(=O)N[C@H](C(=O)N[C@@H](CC(=O)O)C(=O)O)[C@@H](C)O)[C@@H](C)CC)[C@@H](C)CC [Compound 48] (HELM PEPTIDE1{H.[Aib].E.G.T.F.S.S.E.L.A.T.I.L.D.K.Q.A.A.R.D.F.I.A.W.L.I.Q.H.K.I.T.D}|PEPTIDE2{[O=C(O)CCCCCCCCCCCCCCCCCCC(=O)[*:2]].[gGlu].K.E.K.[O=C(COCCOCCN[*:1])[*:2]]}$PEPTIDE1,PEPTIDE2,16:R3-6:R2$$$V2.0)										1.41	5.08
